# Experimental data from US20100093675A1, “NOVEL METHOD” (BIOXELL S.P.A., priority 2006, published 2010).
# “Also recorded” adds a separate entry of the source.
# Columns and labels:
# Balb/c mice = test: Mouse caecum abrasion model of post surgical adhesion formation; format: in vivo; conditions: for total adhesions score: sacrifice day seven, vs vehicle; for adhesion score / length (mm) of caecum adherent to peritoneum, difference to vehicle groups: Compound X 200, Compound Y 30, calcitriol 0.6 ug/kg i.p. once, then orally at MTD (100, 3, 0.3 ug/kg) once a day for 4 days, day seven, Anova with Bonferroni, FIG. 3
# Description: Female BALB/c mice (20 g; Charles River Breeding Laboratories) were used for all experiments. All mice were maintained under standard conditions of food and water ad libitum on a 12-hour day-night cycle according to Home Office regulations.
# Adhesions were induced in mice with a protocol based on a procedure developed by Sulaiman and colleagues (Sulaiman H, Gabella G, Davis C, Mutsaers S E, Boulos P, Laurent G J, Herrick S E: Growth of nerve fibres into murine peritoneal adhesions. J Pathol 2000, 192:396-403). Briefly, mice were anesthetized with a mixture of inhaled isoflurane and oxygen, and a midline incision was made through the abdominal wall and peritoneum. A standard site (6 mm diameter and 1 mm depth), midway and 0.5 cm lateral to the midline incision on the left abdominal wall, was injured scraping 30 times with a scalpel blade. The cecum was isolated and scraped 30 times on its lateral aspect with a scalpel blade, after first irrigating with 0.9% sterile saline. The two injured surfaces were then apposed by placing two horizontal mattress sutures (8/0 Ethilon; Ethicon, Berkshire, UK) 1 cm apart. The midline incision was closed in two layers; the linea-alba with a continuous suture, and then the skin using michel suture clips (Aesculap, Tuttlingen Germany). This model was validated using leuprolide acetate, a GnRH agonist (Enantone, Takeida) injected at 1 mg/kg one week before surgery. The animals were sacrified at day 7 as usual and adhesion score reduction was evaluated.
# To assess the effects of vitamin D compounds on adhesion formation, peritoneal adhesions were induced in 10 animals that were randomized to experimental groups receiving the vitamin D compound or vehicle. In the initial study, animals in the experimental group (n=5) received 0.1-ml i.p. injection of 200 ug/kg of Compound X in saline solution or vehicle (saline solution) only (n=5), at the surgery day then 4 days of daily oral administration (Compound X 100 ug/kg in miglyol or miglyol vehicle only). A second experiment was done with one group of animals (n=5) receiving 0.1-ml i.p. injection of 6 ug/kg of Compound Y in saline solution at the surgery day and then 4 days of daily oral administration (3 ug/kg in miglyol). Control animals (n=5) were similarly administered with vehicle alone (miglyol or saline solution according to the route of administration). The third experiment was designed to compare the effect of calcitriol. Briefly, 28 animals were operated and randomized four different groups: vehicle (miglyol or saline solution according to the route of administration) (n=13), Compound X i.p. […] 30 ug/kg plus three days oral administration at MTD (n=5), calcitriol i.p. […] All animals were killed at 7 days, and the adhesions were quantified in a blinded fashion. Each animal received an adhesion score based on the number, length and strength of adhesions formed. Millimetres of caecum adherent to peritoneum was also measured.
# [1] = Colorimetric serum calcium level in animals of the adhesion experiment (FIG. 4); format: in vivo, mouse; conditions: animals of the FIG. 3 experiment
# Protocol: (§1) Serum calcium was measured with Calcium Dry-fast kit (Sentinel diagnostics, Milan, Italy) with minor modification over the standard method: 10 ul serum, standard solution, or water are added to 100 ul of reconstituted assay reagent in a 96 well plate and incubated 5 min before reading at 550 nm, RT. Standards are run in quadruplicate, blank (water) in duplicate, and samples in triplicate.
# Blood serum was obtained from animals of the experiment described in FIG. 3 and calcium level was measured.
# [2] = Intraperitoneal single administration, serum calcium levels; format: in vivo, mouse; conditions: female BALB/c mice, single i.p., FIG. 9
# CPSS mouse model = test: CPSS (cecal peritoneal scraping and sewing) mouse model of post-surgical adhesion, dose response; format: in vivo; conditions: 30-100-300 ug/kg i.p. at the end of surgery; sacrifice after two weeks; vs vehicle; FIG. 10
# Protocol: Different doses of Compound Y were tested in the CPSS (cecal peritoneal scraping and sewing) mouse model of post-surgical adhesion. Animals were treated with 30-100-300 ug/kg of Compound Y in […] of sterile saline with 0.1% Tween-20, 0.1% ethanol, i.p. at the end of surgery. Animals were sacrificed after two weeks and peritoneral adhesion evaluated. Means of in situ score of the four groups were compared and percentage of reduction of the mean in situ score of treated animals compared with vehicle group was considered.
# [3] = system: New Zealand White rabbits; test: Double uterine horn (DUH) rabbit model of post-surgical adhesions; format: in vivo
# Protocol: Animals: Twenty eight, female New Zealand White rabbits, 2.4-2.7 kg, were purchased from Irish Farms (Norco, Calif.) and quarantined for at least 2 days prior to use. Seven rabbits were randomized into four treatment groups prior to initiation of surgery. The rabbits were housed on a 12:12 light:dark cycle with food and water available ad libitum.
# Double Uterine Horn Model: Rabbits were anesthetized with a mixture of 55 mg/kg ketamine hydrochloride and 5 mg/kg Rompum intramuscularly. Following preparation for sterile surgery, a midline laparotomy was performed. The uterine horns were exteriorized and traumatized by abrasion of the serosal surface with gauze until punctate bleeding developed. Ischemia of both uterine horns was induced by removal of the collateral blood supply. The remaining blood supply to the uterine horns was the ascending branches of the utero-vaginal arterial supply of the myometrium. Treated animals received 25 mL of either vehicle (lactated Ringers' solution with 0.1% Tween 20, 0.1% isopropyl alcohol), or vehicle with one of two doses of Compound Y (30 or 300 μg/kg). An additional group of animals received surgery only. The horns were then returned to their normal anatomic position and the midline sutured with 3-0 Vicryl. The animals were weighed before surgery and necropsy.
# After 7 days, the rabbits were terminated and the percentage of the area of the horns adherent to various organs determined.
# In addition an overall score which took into account all of the above data was given to each rabbit. The following scoring system was used:
# The rabbits were scored by two independent observers that were blinded to the prior treatment of the animal. If there was disagreement as to the score to be assigned to an individual animal, the higher score was given.
# hairless mice = test: Full thickness wound healing mouse model; format: in vivo; conditions: daily oral 3 mg/kg, 5 days a week, 5 hairless mice per group, vs vehicle, FIG. 13
# Protocol: One full thickness wound of 1 cm in diameter was marked using a template and the tissue was excised to the level of the panniculus carnosus using dissecting scissors and forceps. The wound healing was determined by drawing the wound margin with tracing film. The rate of wound healing is expressed as the percentage area remaining 5 hairless mice per group, daily oral treatment with 3 mg/kg of Compound Y, 5 days a week. Wound healing curve using the Boltzman equation and V50 (half time of wound healing) were calculated.
# 3T3-L1 cells = test: Fibrin clot lysis by mouse fibroblasts 3T3-L1; format: cell-based; conditions: cells incubated overnight with 10^-6 to 10^-9 M; normalized to untreated cells; FIG. 7
# Protocol: Confluent 3T3-L1 cells were incubated overnight with the following compounds: TGF-β1 5 ng/ml, Compound Y 10^−6, 10^−7, 10^−8 and 10^−9 M. After removing the supernatants, Fibrinolysis Buffer containing 3 μM fibrinogen and 100 nM plasminogen (“BM”) was added to each well. A fibrin clot was induced by adding 20 nM thrombin. Plates were incubated at 37° C. and clot density was determined by measuring optical density at 405 nm. Results were shown as relative fibrin clot density at different timepoints normalized to untreated cells.
# [4] = Serum calcemia after i.p. or i.p. plus oral Compound Y in CD1 mice (FIG. 5); format: in vivo, mouse; conditions: different doses i.p., or i.p. plus oral for 3 days at MTD (3 ug/kg), 24 h after the last administration
# Protocol: as §1
# CD1 mice were used to test serum calcemia after different doses of Compound Y administered i.p. A second group of animals received both i.p. (different doses) and oral administration for 3 days at MTD (3 ug/kg). Serum calcemia was measured 24 h after the last administration.
# Human mesothelial cells = test: VEGF and TGF-b production by ELISA in human mesothelial cells; format: cell-based; conditions: different doses; supernatants at 48 h; FIG. 14
# Protocol: Human mesothelial cells (Cornell Cell Repositories) were plated in a 96 well plate in the presence of different doses of Compound Y. Supernatants were harvested at 48 h and VEGF and TGF-b production was measured by ELISA. Total number of live cells were quantified by fluorimetric assay.
# C57/BL6 mice = test: CLP (cecal ligation and puncture) mortality due to infection potentiation; format: in vivo, mouse; conditions: 30 mg/kg IP on the day of surgery; ten mice per group; vs vehicle; FIG. 15
# Protocol: CLP (cecal ligation and puncture) was performed with 23G needle and 50-70% of cecal ligation. Compound Y 30 mg/kg was administered IP on the day of surgery. The mortality was checked twice a day. Ten C57/BL6 mice per group were used.
# [5] = system: Human mesothelial cells (LP9); test: tPA and PAI-1 production by ELISA in human mesothelial cells; format: cell-based; conditions: different doses; supernatants at 48 h; FIG. 8
# Protocol: Human mesothelial cells (LP9, Cornell University) were plated in a 96 well plate in the presence of different doses of Compound Y. Supernatants were harvested at 48 h and tPA and PAI-1 production was measured by ELISA. tPA/PAI-1 ratio was calculated. Statistical analysis was performed by ANOVA test.
# [6] = Serum calcium levels in DUH rabbit model animals; format: in vivo; conditions: both doses; prior to surgery, 24 hours after surgery and prior to necropsy; FIG. 12
# Protocol: One ml of blood was drawn into red top tubes prior to surgery, 24 hours after surgery and prior to necropsy to allow the generation of serum to measure serum calcium levels. The blood was allowed to clot, the serum harvested by centrifugation and the serum calcium measured.
structure (smiles),measurement,setting,value
"C=C1/C(=C\C=C2/CCC[C@]3(C)C([C@@H](C)C/C=C/C(O)(CC)CC)=CC[C@@H]23)C[C@@H](O)C[C@@H]1F [Compound X, 1-alpha-fluoro-25-hydroxy-16,23E-diene-26,27-bishomo-20-epi-cholecalciferol]",total adhesions score,"Balb/c mice; 200 ug/kg i.p. once four hours after surgery, then oral 100 ug/kg once a day for 4 days, FIG. 1",significantly reduces
same,"adhesion score / length (mm) of caecum adherent to peritoneum, difference to vehicle groups",Balb/c mice,statistically significant
same,serum calcium level,[1],slightly hypercalcemic
"C=C1/C(=C\C=C2/CCC[C@]3(C)[C@@H]([C@H](C)CCCC(C)(C)O)CC[C@@H]23)C[C@@H](O)C[C@@H]1O [calcitriol, reference compound]","adhesion score / length (mm) of caecum adherent to peritoneum, difference to vehicle groups",Balb/c mice,statistically significant
same,serum calcemia,[2]; 16 and 24 hours after administration,more pronounced and sustained hypercalcemia
"CC(C)(O)CCCC(CCCC(C)(C)O)[C@H]1CC[C@H]2/C(=C/C=C3C[C@@H](O)C[C@H](O)C3)CCC[C@]12C [Compound Y, 1,25-dihydroxy-21-(3-hydroxy-3-methylbutyl)-19-nor-cholecalciferol]",total adhesions score,"Balb/c mice; 6 ug/kg i.p. once four hours after surgery, then orally 3 ug/kg once a day for 4 days, FIG. 2",significantly reduces
same,"adhesion score / length (mm) of caecum adherent to peritoneum, difference to vehicle groups",Balb/c mice,statistically significant
same,cecal-peritoneal adhesion formation (mean in situ score),CPSS mouse model,reduces cecal-peritoneal adhesion formation in a dose dependent manner
same,adhesion formation (overall adhesion score),"[3]; 30 or 300 ug/kg in 25 mL at surgery, 7 days, P<0.001 for both doses compared with both controls, FIG. 11",significantly reduced
same,"peritoneal inflammation, weight loss or hypercalcemia at necropsy","[3]; 30 or 300 ug/kg, necropsy after 7 days","No peritoneal inflammation, weight loss or hypercalcemia were observed"
same,efficacy in preventing adhesion formation compared with prior studies of icodextrin,"[3]; DUH rabbit model, icodextrin data from Verco et al. 2000, FIG. 16",comparable efficacy
same,efficacy in preventing adhesion formation compared with prior studies of lazaroids,"[3]; DUH rabbit model, lazaroid data from Rodgers et al. 1998, FIG. 17",comparable efficacy
same,"wound healing (percentage wound area remaining, healing curve, V50)",hairless mice,No statistically significant difference; also recorded: does not delay wound healing
same,"fibrin clot lysis (relative fibrin clot density, OD 405 nm)",3T3-L1 cells,accelerates fibrin clot lysis by mouse fibroblasts in a dose dependent manner
same,serum calcemia,[4],no hypercalcemic effect
same,TGF-b production,Human mesothelial cells,does not affect
same,VEGF production,Human mesothelial cells,does not affect
same,"mortality (survival curves, log rank test)",C57/BL6 mice,no statistically significant difference
same,serum calcemia,[2]; high dosage (300 mg/kg),Transient hypercalcemia
same,tPA/PAI-1 ratio,[5],increased
same,serum calcium (signs of hypercalcemia),[6],No signs of hypercalcemia
"CCNC(=O)[C@@H]1CCCN1C(=O)[C@H](CCCNC(=N)N)NC(=O)[C@H](CC(C)C)NC(=O)[C@@H](CC(C)C)NC(=O)[C@H](Cc1ccc(O)cc1)NC(=O)[C@H](CO)NC(=O)[C@H](Cc1c[nH]c2ccccc12)NC(=O)[C@H](Cc1c[nH]cn1)NC(=O)[C@@H]1CCC(=O)N1 [leuprolide acetate, reference compound]",total adhesion score,"Balb/c mice; 1 mg/kg injected one week before surgery, sacrifice day 7, model validation, FIG. 6",statistically significant reduction
